Assay results reported in patent US20240197666A1, “DITERPENOID COMPOUNDS THAT ACT ON PROTEIN KINASE C (PKC)” (K-Gen Therapeutics, Inc., priority 2021, published 2024).
Read-outs that look alike come from different tables or passages of the source.

Columns and labels:
C1b domain of human PKCδ = target: T1, C1b domain of human PKCδ (Homo sapiens, UniProt Q05655); assay: biochemical; assay type: binding; details: 3H-PDBu competition
T1 construct: Genes encoding C1b domains of human PKCα, δ, ε, θ, and PKD1 (PKCμ) were synthesized; made in house; host or cells: E. coli BL21(DE3)
Outline: (§1)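 Affinity was measured by competition with the radiotracer 3H-PDBu for recombinant human GST-C1b fusion proteins expressed in E. coli BL21(DE3). Incubation ran 10 minutes at 37° C with shaking, then 20 minutes on ice, and filter-trapped 3H-PDBu was counted by scintillation. IC50 values were converted to Ki by Cheng-Prusoff using the experimentally determined Kd for each protein preparation.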

C1b domain of human PKCε = target: T2, C1b domain of human PKCε (Homo sapiens, UniProt Q02156); assay: biochemical; assay type: binding; details: 3H-PDBu competition
T2 construct: Genes encoding C1b domains of human PKCα, δ, ε, θ, and PKD1 (PKCμ) were synthesized; made in house; host or cells: E. coli BL21(DE3)
Outline: as §1

A549 cell line = assay: Proliferation of A549 (CellTiter Glo); assay type: cell-based; details: Homo sapiens, read-out: IC50 μM (A549 Cell Line)
Outline: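 A549 cells (K-Ras-mutant NSCLC) were seeded at 1,000 cells/well, allowed 24 h to settle, then exposed for 96 h to 3-fold serially diluted compound (final DMSO ≤0.25%). CellTiter Glo luminescence was read, and inhibition was calculated relative to DMSO-only wells. IC50, relative IC50 and % top inhibition came from curve fitting.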

Panc2.13 (Pancreatic) = assay: Proliferation of Panc2.13; assay type: cell-based
Procedure: (§2) The diterpenoid compounds were tested in A549, a non-small cell lung cancer cell line harboring a K-Ras activating mutation. Briefly, A549 cells at a density of 1,000 cells/well were seeded in 96-well plates and incubated at 37° C. for 24 hours. A series of different concentrations of compound stocks (500×) were prepared by 3-fold serial dilution in DMSO. These compounds were further diluted in culture media and then added to cells so that the final DMSO concentration was not exceeding 0.25%. After 96 hours of incubation, 50 μL of CellTiter Glo reagent (Promega) was added to each well and luminescence was measured after 10 minutes using EnVision (PerkinElmer). Luminescence from cells treated with DMSO alone was set as Max and % of inhibition was calculated as follows: Inhibition %=(Max-Sample value)/Max×100. Data was analyzed using XL-fit software (ID Business Solutions Ltd.) and IC50, relative IC50, and % of top inhibition was calculated. Some of the compounds in this disclosure were very potent in blocking proliferation of A549 lung cancer cells at low nM range. In addition, potency of inhibiting A549 proliferation correlated well with its binding affinity to PKCs for this series of compounds. In other words, higher affinity binders had stronger inhibitory effects on A549 proliferation. This further support the notion that activation, rather than inhibition, of certain PKC isoforms is required to block proliferation of cancer cells, some of which may harbor K-Ras mutations. This is in sharp contrast to previous literature and common belief that inhibition of PKC is necessary to block cancer cell growth (Kang, 2014, New Journal of Science, 2014:1-36). Data presented here is in agreement with recent findings that many loss-of-function but not gain-of-function mutations of PKC isoforms have been identified in many human cancers (Antal et al., 2015, Cell, 160:489-502).
(§3) The compounds in this disclosure were tested for their potency in blocking proliferation of a few other cancer cells lines, including K-Ras mutant pancreatic cell lines Panc2.13 and KP-4, leukemia cell line HL-60, and lymphoma cell lines Namalwa and Mino. Similar procedures as in Example 67 were followed. Initial cell numbers seeded in 96-well plates were different for different cell lines: 3000 cells/well for Panc2.13; 800-1000 cells/well for KP-4; 5000 cells/well for HL-60; 5000-10000 cells/well for Namalwa and Mino. A ratio of (IC50 of K101)/(IC50 of compound) (data in parenthesis in Table 5) was used to normalize the compound potency from different assay batches to a common comparator K101.

KP-4 (Pancreatic) = assay: Proliferation of KP-4; assay type: cell-based; details: read-out: IC50 KP-4 (Pancreatic)
Procedure: as §2, §3

HL-60 (Leukemia) = assay: Proliferation of HL-60; assay type: cell-based
Namalwa (Lymphoma) = assay: Proliferation of Namalwa; assay type: cell-based
Outline: (§4)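 Cells seeded per line (KP-4 800-1000, Panc2.13 3000, Namalwa and Mino 5000-10000 cells/well), 24 h at 37° C, then 96 h with 3-fold serial dilutions of compound, final DMSO ≤0.25%. CellTiter Glo luminescence read; % inhibition vs DMSO-only max, IC50 fitted. Potency also normalized as ratio to comparator K101 across batches.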

Mino (Lymphoma) = assay: Proliferation of Mino; assay type: cell-based
Outline: as §4

PANC1 cells = assay: Sphere formation assay; assay type: cell-based; details: Homo sapiens, PANC-1, read-out: concentration exhibiting at least 50% inhibition on the sphere forming efficiency
Procedure: A group of diterpenoid compounds of the present disclosure were tested to assess their effects on blocking formation of spheres from cancer cell lines such as PANC1, a K-Ras mutant pancreatic cell line. Briefly, PANC1 cells were harvested, re-suspended as single cell suspensions, counted and seeded into Ultra Low Attachment Culture 96-well plate (Corning, Cat #3474) at 100 cells/well in 100 μl of complete media (with 10% FBS) containing 2% Matrigel (Corning, Cat #354234) and DMSO or compounds. Six replicates per condition were seeded. The seeded cells were placed in the 37° C. tissue culture incubator. 10 μl of low serum containing media (with 0.1% FBS) was added to each well every week. Spheres formed after 3-4 weeks were counted. Sphere forming efficiency was expressed as percentage of # of spheres/ # of cells seeded.

[1] = system: NFκB-driven transcription in HeLa-NFκB luciferase reporter cell line; assay: NFκB luciferase reporter assay; details: Homo sapiens, HeLa, 16 h, read-out: NFκB-luc HeLa cells EC50 (μM)
[2] = system: phosphorylation of PKCμ, PKCδ and Erk1/2 in A549 lung cancer cells; assay: Western blot of activation of PKC and downstream target protein in A549 cells; assay type: cell-based; details: 3 μM, 30 minutes
Procedure: According to the methods described in patent (WO/2017/083783) A549 lung cancer cells (˜3 million cells) were seeded in 10 cm tissue culture dishes (or ˜1 million cells in 6 cm dish) and grown overnight. Cells were then treated with different drugs at indicated concentrations for 30 minutes. Cell lysate preparation, protein quantitation, SDS-PAGE, and Western blotting procedures are described (WO/2017/083783). β-actin or Vinculin was used as loading controls. Imagequant LAS4000 (GE) was used to scan membranes if secondary antibodies anti-mouse IgG HRP conjugate or anti-rabbit IgG HRP conjugate (dilutions from 1:2000-1:10000) were used. For ProteinSimple Wes system, manufacture's procedure was followed (ProteinSimple 12-230 kDa Wes Separation Module) for sample preparation, loading, running, and data analysis.
Phosphorylation of these sites has been linked to acute activation or catalytic activity of the PKC isoforms and Erk1/2. High level of phosphorylation indicates strong activation.
A subset of the diterpenoid compounds with good binding affinity to novel PKC isoforms and PKCμ was tested at two different concentrations in A549 cells to assess activation of PKCμ, PKCδ, and Erk1/2 by Western blot analysis. In addition to the phospho-specific antibodies described above, an additional phospho-specific antibody P-PKCδ (S299) (Abcam cat #133456) was also used. This antibody has been shown in the literature (Durgan et al., FEBS Lett. 2007, 581(18):3377-81, Novel phosphorylation site markers of protein kinase C delta activation) to be able to detect activation of PKCδ. K-101 (prostratin, 1 μM) was included as reference compounds.

C1b domain of human PKCα = target: T3, C1b domain of human PKCα (Homo sapiens, UniProt P17252); assay: biochemical; assay type: binding; details: 3H-PDBu competition
T3 construct: Genes encoding C1b domains of human PKCα, δ, ε, θ, and PKD1 (PKCμ) were synthesized; made in house; host or cells: E. coli BL21(DE3)

[3] = target: T4, C1b domain of human PKD1 (PKCμ) (Homo sapiens, UniProt Q15139); assay: Competitive 3H-PDBu binding assay, C1b domain of PKD1 (PKCμ); details: 3H-PDBu competition
T4 construct: Genes encoding C1b domains of human PKCα, δ, ε, θ, and PKD1 (PKCμ) were synthesized; made in house; host or cells: E. coli BL21(DE3)
T4 sequence (Q15139 270-320 limits assumed): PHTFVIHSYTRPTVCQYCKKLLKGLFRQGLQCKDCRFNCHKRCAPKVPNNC
Procedure: Compounds described in this disclosure were tested for binding affinity to C1b domain of PKC isoforms. Compound binding affinity to C1b domain of PKC isoforms was derived from competitive binding assay using radioactive tracer ^3H-PDBu and recombinant GST-C1b or full-length of human PKC proteins based on modified procedures from Methods in Molecular Biology, vol.
Genes encoding C1b domains of human PKCα, δ, ε, θ, and PKD1 (PKCμ) were synthesized and inserted into pGEX-2TK or pGEX-4T1 vectors for expression and production of GST-C1b proteins in E. coli BL21(DE3) via IPTG induction. The target proteins were purified by glutathione sepharose 4B and followed by ion exchange chromatography if needed to achieve purity >70%. Aliquots of the purified proteins were stored at −80 degree for binding assay (storage buffer: 20 mM Tris pH 8.0, 200 mM NaCl, 10% glycerol, 1 mM DTT).
The plate was incubated at 37° C. on a shaker at 300 rpm for 10 minutes and then put on ice for 20 minutes. […] The bottom of the filter plate was sealed and 50 μL of MicroScint-20 (PerkinElmer) cocktail was added to each well. ^3H-PDBu trapped in each well was counted using PerkinElmer MicroBeta2 Reader. Data were analyzed using GraphPad Prism5 with the model “log(inhibitor) vs. response-variable slope” to fit the IC50, and then IC50 was transformed to Ki using Cheng-Prusoff equation: Ki=IC50/(1+added radio ligand/Kd). Kd is the binding affinity of each protein preparation to ^3H-PDBu, determined experimentally.

T1 sequence (Q05655 230-280 limits assumed): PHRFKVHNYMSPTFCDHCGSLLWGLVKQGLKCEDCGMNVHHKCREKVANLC
T2 sequence (Q02156 242-292 limits assumed): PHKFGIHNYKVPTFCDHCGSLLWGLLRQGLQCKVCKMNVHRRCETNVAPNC

CC1=C[C@H]2[C@@]3(O)[C@H](C)C[C@]4(OC(=O)C(C)(C)C)[C@H]([C@@H]3C=C(CO)C[C@]2(O)C1=O)C4(C)C
Ki (C1b domain of human PKCδ): 0.01 to 0.03 µM | Ki (C1b domain of human PKCε): 0.01 to 0.03 µM | IC50 (A549 cell line; A549, 96 h): 0.06 to 0.1 µM | ratio (IC50 of K101)/(IC50 of compound) Panc2.13 (Panc2.13 (Pancreatic)): 6.29 | IC50 (Panc2.13 (Pancreatic); read-out: IC50 Panc2.13 (Pancreatic)): 0.1 to 0.2 µM | IC50 (KP-4 (Pancreatic)): 0.1 to 0.2 µM | ratio (IC50 of K101)/(IC50 of compound) HL-60 (HL-60 (Leukemia)): 5.29 | IC50 (HL-60 (Leukemia); Homo sapiens, HL-60, 96 h, read-out: IC50 HL-60 (Leukemia)): 0.1 to 0.6 µM | ratio (IC50 of K101)/(IC50 of compound) Namalwa (Namalwa (Lymphoma)): 1.38 | IC50 (Namalwa (Lymphoma); read-out: IC50 Namalwa (Lymphoma)): 0.03 to 0.06 µM | ratio (IC50 of K101)/(IC50 of compound) Mino (Mino (Lymphoma)): 6.82 | IC50 (Mino (Lymphoma); Homo sapiens, MINO, read-out: IC50 Mino (Lymphoma)): 0.01 to 0.03 µM | IC50 (PANC1 cells): ≤ 0.15 µM | EC50 [1]: 0.06 to 0.1 µM

CC1=C[C@H]2[C@@]3(O)[C@H](C)C[C@]4(OC(=O)CCc5ccncc5)[C@H]([C@@H]3C=C(CO)C[C@]2(O)C1=O)C4(C)C
phosphorylation of PKCμ, PKCδ and Erk1/2 [2]: induced phosphorylation | IC50 (A549 cell line; A549, 96 h): 1 to 2 µM

CC1=C[C@H]2[C@@]3(O)[C@H](C)C[C@]4(OC(=O)CCc5ccccn5)[C@H]([C@@H]3C=C(CO)C[C@]2(O)C1=O)C4(C)C
phosphorylation of PKCμ, PKCδ and Erk1/2 [2]: induced phosphorylation | IC50 (A549 cell line; A549, 96 h): 0.6 to 1 µM

CC1=C[C@H]2[C@@]3(O)[C@H](C)C[C@]4(OC(=O)[C@@H](N)C/C=C/c5ccccc5)[C@H]([C@@H]3C=C(CO)C[C@]2(O)C1=O)C4(C)C
Ki (C1b domain of human PKCα): 0.1 to 0.2 µM | Ki (C1b domain of human PKCδ): 0.005 to 0.01 µM | Ki [3]: < 0.005 µM | IC50 (A549 cell line; A549, 96 hours, CellTiter Glo): 0.06 to 0.1 µM
